Reference: BindingDB's records for doi:10.1016/S0960-894X(96)00483-0 (1996)

Target: Kynureninase (Pseudomonas fluorescens) (UniProt P83788)
Test: Compound was evaluated for its binding affinity against kynureninase isolated from Pseudomonas fluorescence

Sequence of Kynureninase (Pseudomonas fluorescens) (P83788 whole entry, looked up): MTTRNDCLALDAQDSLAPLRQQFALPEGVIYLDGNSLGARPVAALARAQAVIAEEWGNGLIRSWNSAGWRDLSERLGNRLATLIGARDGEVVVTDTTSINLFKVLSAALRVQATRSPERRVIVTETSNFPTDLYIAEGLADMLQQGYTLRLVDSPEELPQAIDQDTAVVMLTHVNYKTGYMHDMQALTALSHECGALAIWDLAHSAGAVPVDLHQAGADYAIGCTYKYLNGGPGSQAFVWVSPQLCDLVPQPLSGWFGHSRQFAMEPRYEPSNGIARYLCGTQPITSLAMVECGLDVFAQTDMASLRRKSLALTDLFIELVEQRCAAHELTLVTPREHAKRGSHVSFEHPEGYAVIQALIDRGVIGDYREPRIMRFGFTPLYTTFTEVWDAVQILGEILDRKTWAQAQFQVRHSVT

Row | Compound | Ki [µM]
1 | COP(=O)(C[C@H](NC(=O)OCc1ccccc1)C(=O)O)c1ccccc1 (stereo partly drawn) [(R)-2-Benzyloxycarbonylamino-3-(methoxy-phenyl-phosphinoyl)-propionic acid] | 880
2 | N[C@@H](CC(=O)c1ccccc1)C(=O)O [2-ammonio-4-oxo-4-phenyl-(2S)-butanoate] | 23.4
3 | Nc1ccccc1C(=O)C[C@H](N)C(=O)O [2-ammonio-4-(2-ammoniophenyl)-4-oxo-(2S)-butanoate] | 4.28
4 | COC(=O)[C@H](CP(=O)(OC)c1ccccc1)NC(=O)OCc1ccccc1 (stereo partly drawn) [(R)-2-Benzyloxycarbonylamino-3-(methoxy-phenyl-phosphinoyl)-propionic acid methyl ester] | 8.8
